In patent US20040106590A1, “Methods and reagents for treating infections of clostridium difficile and diseases associated therewith” (priority 2002, published 2004):
Converted amounts (≈) assume the structure as drawn.

Tests used:
Format in all cases: cell-based
[1] = tested on: B. theta 29741; assay: MIC by agar dilution, QC organism B. theta 29741; details: QC B. theta 29741, 48 h anaerobic
[2] = tested on: B. frag 25285; assay: MIC by agar dilution, QC organism B. frag 25285; details: QC B. frag 25285, 48 h anaerobic
[3] = tested on: C. difficile; assay: MIC by agar dilution (NCCLS M11-A5) on C. difficile strains; details: for MIC: Clostridioides difficile; for susceptibility of strains: Strains 80 and 29-5-30
[4] = ATCC43255, Sample 31, QC C. diff ATCC 43255
[5] = Sample 23, C. difficile 11-5-03
[6] = Sample 24, C. difficile 13-5-03
[7] = Sample 25, C. difficile 14-5-03
[8] = Sample 26, C. difficile 16-5-03
[9] = Sample 27, C. difficile 17-5-03
[10] = Sample 28, C. difficile 19-5-03
[11] = Sample 29, C. difficile 22-5-03
[12] = Sample 30, C. difficile 29-5-03

Structure (SMILES) | MIC [1] [µg/mL] | MIC [2] [µg/mL] | MIC [3, 4] [µg/mL] | MIC ([3]; Sample 1, C. difficile 18) [µg/mL] | MIC ([3]; Sample 2, C. difficile 22) [µg/mL] | MIC ([3]; Sample 3, C. difficile 28) [µg/mL] | MIC ([3]; Sample 4, C. difficile 40) [µg/mL] | MIC ([3]; Sample 5, C. difficile 44) [µg/mL] | MIC ([3]; Sample 6, C. difficile 50) [µg/mL] | MIC ([3]; Sample 7, C. difficile 60) [µg/mL] | MIC ([3]; Sample 8, C. difficile 70) [µg/mL] | MIC ([3]; Sample 9, C. difficile 80) [µg/mL] | MIC ([3]; Sample 10, C. difficile 101) [µg/mL] | MIC ([3]; Sample 11, C. difficile 107) [µg/mL] | MIC ([3]; Sample 12, C. difficile 113) [µg/mL] | MIC ([3]; Sample 13, C. difficile 116) [µg/mL] | MIC ([3]; Sample 14, C. difficile 143) [µg/mL] | MIC ([3]; Sample 15, C. difficile 146) [µg/mL] | MIC ([3]; Sample 16, C. difficile 154) [µg/mL] | MIC ([3]; Sample 17, C. difficile 166) [µg/mL] | other results
CO[C@H]1/C=C/O[C@@]2(C)Oc3c(C)c(O)c4c(=O)c(c5oc6cc(N7CCN(CC(C)C)CC7)cc(O)c6nc-5c4c3C2=O)NC(=O)/C(C)=C\C=C\[C@H](C)[C@H](O)[C@@H](C)[C@@H](O)[C@@H](C)[C@H](OC(C)=O)[C@@H]1C [ABI1648, 3′-hydroxy-5′-(4-isobutyl-1-piperazinyl) benzoxazinorifamycin] | 0.03 (≈ 0.0319 µM) | 0.03 (≈ 0.0319 µM) | 0.002 (≈ 0.00213 µM) | 0.001 (≈ 0.00106 µM) | 0.001 (≈ 0.00106 µM) | 0.002 (≈ 0.00213 µM) | 0.001 (≈ 0.00106 µM) | 0.001 (≈ 0.00106 µM) | 0.002 (≈ 0.00213 µM) | 0.002 (≈ 0.00213 µM) | 0.001 (≈ 0.00106 µM) | > 20.5 | 0.004 (≈ 0.00425 µM) | 0.001 (≈ 0.00106 µM) | 0.004 (≈ 0.00425 µM) | 0.002 (≈ 0.00213 µM) | ≤ 0.0005 | 0.001 (≈ 0.00106 µM) | ≤ 0.0005 | 0.001 (≈ 0.00106 µM) | MIC ([3]; Sample 18, C. difficile 199): ≤ 0.0005 µg/mL; MIC ([3]; Sample 19, C. difficile 65C): 0.002 µg/mL (≈ 0.00213 µM); MIC ([3]; Sample 20, C. difficile 5-5-03): 0.002 µg/mL (≈ 0.00213 µM); MIC ([3]; Sample 21, C. difficile 6-5-03): 0.002 µg/mL (≈ 0.00213 µM); MIC ([3]; Sample 22, C. difficile 7-5-03): 0.002 µg/mL (≈ 0.00213 µM); MIC [3, 5]: 0.001 µg/mL (≈ 0.00106 µM); MIC [3, 6]: ≤ 0.0005 µg/mL; MIC [3, 7]: 0.001 µg/mL (≈ 0.00106 µM); MIC [3, 8]: 0.008 µg/mL (≈ 0.0085 µM); MIC [3, 9]: 0.002 µg/mL (≈ 0.00213 µM); MIC [3, 10]: 0.002 µg/mL (≈ 0.00213 µM); MIC [3, 11]: 0.001 µg/mL (≈ 0.00106 µM); MIC [3, 12]: > 0.5 µg/mL; susceptibility of strains [3]: less susceptible; effectiveness compared with metronidazole ([3]; against almost all 31 strains of C. difficile): much more effective than metronidazole
Cc1ncc([N+](=O)[O-])n1CCO [Metronidazole, metronidazole, reference compound] | 2 (≈ 11.7 µM) | 1 (≈ 5.84 µM) | 0.5 (≈ 2.92 µM) | 0.5 (≈ 2.92 µM) | 0.5 (≈ 2.92 µM) | 0.5 (≈ 2.92 µM) | 0.5 (≈ 2.92 µM) | 0.5 (≈ 2.92 µM) | 0.5 (≈ 2.92 µM) | 0.5 (≈ 2.92 µM) | 0.25 (≈ 1.46 µM) | 0.5 (≈ 2.92 µM) | 0.5 (≈ 2.92 µM) | 0.5 (≈ 2.92 µM) | 0.5 (≈ 2.92 µM) | 0.25 (≈ 1.46 µM) | 0.5 (≈ 2.92 µM) | 0.5 (≈ 2.92 µM) | 0.25 (≈ 1.46 µM) | 0.5 (≈ 2.92 µM) | MIC ([3]; Sample 18, C. difficile 199): 0.25 µg/mL (≈ 1.46 µM); MIC ([3]; Sample 19, C. difficile 65C): 0.5 µg/mL (≈ 2.92 µM); MIC ([3]; Sample 20, C. difficile 5-5-03): 0.5 µg/mL (≈ 2.92 µM); MIC ([3]; Sample 21, C. difficile 6-5-03): 0.5 µg/mL (≈ 2.92 µM); MIC ([3]; Sample 22, C. difficile 7-5-03): 0.25 µg/mL (≈ 1.46 µM); MIC [3, 5]: 0.5 µg/mL (≈ 2.92 µM); MIC [3, 6]: 0.5 µg/mL (≈ 2.92 µM); MIC [3, 7]: 0.5 µg/mL (≈ 2.92 µM); MIC [3, 8]: 0.5 µg/mL (≈ 2.92 µM); MIC [3, 9]: 0.25 µg/mL (≈ 1.46 µM); MIC [3, 10]: 0.5 µg/mL (≈ 2.92 µM); MIC [3, 11]: 0.25 µg/mL (≈ 1.46 µM); MIC [3, 12]: 0.5 µg/mL (≈ 2.92 µM); susceptibility of strains [3]: less susceptible
